Entries after “also recorded” stand apart in the source; their conditions may differ. Each block holds one compound with its values, some of them ahead of it.
Legend:
[1] = cited from earlier work
[2] = ATTR-CM patients, Phase III; cited from earlier work
[3] = in vitro; cited from earlier work
[4] = patients treated for TTR amyloidosis; cited from earlier work
Abca4-/- mouse model = conditions: cited from earlier work
TTR tetramers = TTR tetramers (Homo sapiens, UniProt P02766); conditions: cited from earlier work
Balb/c mice = experiment: Retinal function by electroretinography (scotopic ERG a-wave) in treated Balb/c mice; assay type: in vivo; conditions: 1.89 log cd*s/m2 light intensity; 25 mg/kg daily oral, 10 days
Method: The experiments were conducted in Balb/c mice. Three groups of mice were used: control untreated mice; mice treated with ACPHS-14; and mice treated with the ACPHS-14 plus β-carotene combination. ACPHS-14 was administered through oral gavage at a 25 mg/kg dose formulated into the chow to ensure a standard daily oral dosing of the compound at the 25 mg/kg dose. β-carotene was dissolved in olive oil and was administered through oral gavage daily at a daily 6 mg/kg dose. Dosing duration was 10 days. Following compound dosing, retinal function in the mice was assessed by ERG as previously described (Racz, B. et al. 2018).

RBP4 = RBP4 (Homo sapiens, UniProt P02753); conditions: cited from earlier work
[5] = in vivo; cited from earlier work
serum RBP4 = conditions: mice; cited from earlier work
rhodopsin = experiment: Rhodopsin measured spectrophotometrically in retinal extracts of treated Balb/c mice; assay type: in vivo; conditions: Balb/c (wild-type) mice, 25 mg/kg daily oral, 10 days
Method: Thus, ACPHS-14 was used as a representative “first component” of the present disclosure in order to assess the feasibility of using β-carotene as the “second component” in the co-drug strategy. Accordingly, an experiment was conducted to determine whether partial reduction in functional rhodopsin (opsin with conjugated 11-cis-retinal) induced by oral ACPHS-14 in mice can be compensated by co-administration with β-carotene. An experiment was also conducted to determine whether co-administration of ACPHS-14 and β-carotene can restore retinal function as can be assessed by electroretinography (ERG). It was previously reported that ACPHS-14 can induce a pronounced reduction in serum RBP4 along with stabilization of TTR tetramers (Cioffi, C. L. et al. 2021).
The experiments were conducted in Balb/c mice. Three groups of mice were used: control untreated mice; mice treated with ACPHS-14; and mice treated with the ACPHS-14 plus β-carotene combination. […] Following compound dosing, retinal function in the mice was assessed by ERG as previously described (Racz, B. et al. 2018). […] Rhodopsin was measured spectrophotometrically in the retinal extracts using a previously published protocol (Racz, B. et al. 2018).

[6] = Phase 2, dry AMD patients; no ocular AEs with placebo; cited from earlier work
[7] = long-term use in cancer patients; cited from earlier work
[8] = cited from earlier work; remark: listed apart in the source

Compound: O=C(O)c1ccc2nc(-c3cc(Cl)cc(Cl)c3)oc2c1 [compound 3, tafamidis]
patients who do not respond [1]: Approximately 30%
reduction of the rate of cardiovascular-related hospitalizations compared to placebo controls [2]: 32%
reduction of the risk of death compared to placebo controls [2]: 30%

Compound: [2H]C([2H])([2H])C(/C=C/C=C(C)/C=C/C1=C(C)CCCC1(C)C)=C\C=O [C20-D3-retinaldehyde]
rate of dimer formation relative to unlabeled retinaldehyde (times less rapidly) [3]: 12 times
reduction of bisretinoid A2E formation [3]: 7 fold

Compound: patisiran
ocular symptoms in clinical use [4]: symptoms of night blindness in a subset of patients

Compound: [2H]C([2H])([2H])C(/C=C/C=C(C)/C=C/C1=C(C)CCCC1(C)C)=C\COC(C)=O [C20-D3-retinyl acetate]
inhibition of bisretinoid synthesis and normalization of complement system dysregulation in the retina (Abca4-/- mouse model; Abca4-/- mice, model of Stargardt disease (STGD1)): effective

reduction of scotopic ERG a-wave amplitude in comparison to untreated mice (Balb/c mice): 45%
rhodopsin in comparison to untreated mice (rhodopsin): significantly reduced rhodopsin
Compound: Cc1n[nH]c(C)c1N1CCN(c2cc(C(=O)O)ccc2F)CC1 [ACPHS-14]
bisretinoid reduction (Abca4-/- mouse model; Abca4-/- mouse model): excellent bisretinoid reduction
stabilization of TTR tetramers (TTR tetramers): inducing stabilization of TTR tetramers
competition with retinol binding to RBP4 (RBP4): does not compete with retinol binding to RBP4
oral bioavailability [5]: orally bioavailable
RBP4-lowering efficacy (serum RBP4): excellent RBP4-lowering efficacy; also recorded: significantly decreasing the concentration of serum RBP4

Compound: CC1=C(/C=C/C(C)=C/C=C/C(C)=C/C(=O)Nc2ccc(O)cc2)C(C)(C)CCC1 [fenretinide]
drug-treated patients with reversible reduction in dark adaptation [6]: ~ 10%
yearly prevalence of transient and reversible ocular AEs such as diminished dark adaptation [7]: 5.8-6.7%

Compound: CC(=O)N1CCc2c(C(=O)N3CCC(c4ccc(F)c(F)c4C(F)(F)F)CC3)n[nH]c2C1 [Tinlarebant]
ocular adverse effects in a subset of patients [8]: asymptomatic delayed dark adaptation (measured only instrumentally) or symptomatic xanthopsia

Source: patent US20260216177A1, “CO-DRUG, CO-ADMINISTRATION, AND SEQUENTIAL ADMINISTRATION OF SELECTIVE TTR LIGAND AND C20-D3-RETINOL FOR ELIMINATION OF MECHANISM-BASED OCULAR ADVERSE EFFECTS IN TREATING MACULAR DEGENERATION AND TTR AMYLOIDOSIS” (The Trustees of Columbia University in the City of New York, priority 2023, published 2026)
